Some test systems named below: OVCAR-8 ovarian; EKVX NSCLC; K-562 leukemia; UACC-62 melanoma; SF-268 CNS; HCC-2998 colon; NCI-H460 lung; OVCAR-3 ovarian; IGROV1 ovarian; A498 renal.
Holding throughout (assay): DTP human tumour cell line panel, 48 h

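Compound exposure: 48 hours, 5 concentrations, 96-well plates. GI50: concentration for 50% inhibition of growth. Definition used: TGI = concentration required for complete inhibition of growth.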 Bounds are passed on as bounds.

Regarding `Cc1nc(NC(=S)NC(=O)c2ccc(Cl)c(Cl)c2)sc1C(=O)/C=C/c1ccccc1[N+](=O)[O-]`, the TGI was 63500 nM in the experiment with OVCAR-8 ovarian; 91600 nM in the experiment with EKVX NSCLC; 42200 nM with K-562 leukemia; 28500 nM with UACC-62 melanoma; above 100000 nM with SF-268 CNS; above 100000 nM in the experiment on HCC-2998 colon. In addition, the TGI in the experiment on NCI-H460 lung is above 100000 nM; with OVCAR-3 ovarian it was 51700 nM; with IGROV1 ovarian it was 66700 nM.

`C=C1C(=O)O[C@@H]2[C@H]1CC[C@H](C)[C@]1(O)CCC(=O)[C@@]21C`: the TGI with OVCAR-8 ovarian, in the experiment on EKVX NSCLC, in the experiment with K-562 leukemia, in the experiment on UACC-62 melanoma, with SF-268 CNS and with HCC-2998 colon was above 10000 nM throughout. The TGI in the experiment with OVCAR-3 ovarian and in the experiment on IGROV1 ovarian was above 10000 nM in each case.

With `O=C1C(=O)c2cc([N+](=O)[O-])ccc2-c2ccccc21`, the GI50 is 1710 nM in the experiment with OVCAR-8 ovarian; 1620 nM with EKVX NSCLC; 1700 nM with UACC-62 melanoma; 1290 nM with SF-268 CNS; 1770 nM with HCC-2998 colon; 1780 nM with NCI-H460 lung. Besides, the GI50 in the experiment on OVCAR-3 ovarian was 1420 nM; in the experiment with A498 renal it was 12500 nM; with IGROV1 ovarian it was 1900 nM. Besides, the total growth inhibition concentration (TGI) in the experiment on OVCAR-8 ovarian was 3600 nM; in the experiment with EKVX NSCLC, 3160 nM; with UACC-62 melanoma, 3130 nM; in the experiment with SF-268 CNS, 2620 nM; with HCC-2998 colon it was 3180 nM; in the experiment on NCI-H460 lung it was 3350 nM. Moreover, the TGI in the experiment with OVCAR-3 ovarian was determined as 2760 nM; with A498 renal, 25100 nM; with IGROV1 ovarian, 3540 nM.

As for `CCCCCCCCN(CCCCCCCC)C(=N)c1ccnc2ccccc12`, the GI50 in the experiment on OVCAR-8 ovarian is 1580 nM; with EKVX NSCLC, 1280 nM; in the experiment with UACC-62 melanoma it was 1250 nM; in the experiment with SF-268 CNS, 1310 nM; in the experiment on OVCAR-3 ovarian it was 1200 nM; in the experiment with A498 renal, 1410 nM. In addition, the TGI in the experiment on OVCAR-8 ovarian was found to be 3270 nM; in the experiment on EKVX NSCLC it was 2680 nM; in the experiment on UACC-62 melanoma, 2650 nM; in the experiment on SF-268 CNS, 2890 nM; in the experiment with OVCAR-3 ovarian, 2540 nM; in the experiment with A498 renal, 2850 nM.

With `CCN1C(=O)N(CC)C2C1NN=c1s/c(=C3\C(=O)N(CCC(C)C)c4ccccc43)c(=O)n12` (configuration not stated), the GI50 is 1340 nM in the experiment with EKVX NSCLC; 586 nM in the experiment on K-562 leukemia; 607 nM in the experiment on UACC-62 melanoma; 2800 nM in the experiment with SF-268 CNS; 1920 nM in the experiment on HCC-2998 colon; 1750 nM in the experiment on OVCAR-3 ovarian. The GI50 with A498 renal is 477 nM; in the experiment on IGROV1 ovarian, 1230 nM. In addition, the TGI in the experiment on EKVX NSCLC was above 100000 nM; in the experiment with K-562 leukemia, above 100000 nM; in the experiment with UACC-62 melanoma, 8040 nM; in the experiment with SF-268 CNS, 20500 nM; in the experiment on HCC-2998 colon, 4540 nM; in the experiment with OVCAR-3 ovarian it was 4330 nM. Also, the TGI in the experiment on A498 renal came to 2590 nM; in the experiment with IGROV1 ovarian, 6630 nM.

With `Cc1ccc(-c2csc(N(C(=O)N3CCN(c4cc5c(cc4F)c(=O)c(C(=O)O)cn5C4CC4)CC3)c3ccccc3)n2)cc1`, the GI50 was 405 nM with OVCAR-8 ovarian; 381 nM in the experiment with EKVX NSCLC; 269 nM in the experiment on K-562 leukemia; 432 nM in the experiment on SF-268 CNS; 537 nM in the experiment on HCC-2998 colon; 331 nM in the experiment with NCI-H460 lung. In addition, the GI50 is 391 nM in the experiment on OVCAR-3 ovarian, 36.3 nM in the experiment on A498 renal and 338 nM with IGROV1 ovarian. In addition, the TGI in the experiment on OVCAR-8 ovarian, in the experiment on EKVX NSCLC, in the experiment with K-562 leukemia, with SF-268 CNS, with HCC-2998 colon and with NCI-H460 lung was above 100000 nM throughout. Besides, the TGI was above 100000 nM in the experiment with OVCAR-3 ovarian, 443 nM with A498 renal and above 100000 nM in the experiment on IGROV1 ovarian.

`CC(C#N)c1cn(S(=O)(=O)c2ccccc2)c2ccccc12` (configuration not stated): the TGI in the experiment with OVCAR-8 ovarian, in the experiment with K-562 leukemia, in the experiment with UACC-62 melanoma, in the experiment on SF-268 CNS, with HCC-2998 colon and in the experiment with NCI-H460 lung was above 100000 nM in each case. Further, the total growth inhibition concentration (TGI) with OVCAR-3 ovarian and in the experiment on IGROV1 ovarian was above 100000 nM in each case.

In the case of `O=C(O)C1C2C=CC(O2)C1C(=O)Nc1ccccc1` (configuration not stated), the total growth inhibition concentration (TGI) with OVCAR-8 ovarian, in the experiment on EKVX NSCLC, in the experiment with K-562 leukemia, with UACC-62 melanoma, with SF-268 CNS and with OVCAR-3 ovarian was above 100000 nM throughout. Moreover, the TGI with A498 renal and in the experiment with IGROV1 ovarian was above 100000 nM throughout.

With `O=C(O)/C(Cl)=C(\Cl)Nc1cccc(C(F)(F)F)c1`, the TGI in the experiment with OVCAR-8 ovarian, with EKVX NSCLC, in the experiment with K-562 leukemia, with UACC-62 melanoma, in the experiment with SF-268 CNS and in the experiment on HCC-2998 colon was above 100000 nM each time. Besides, the TGI in the experiment on NCI-H460 lung, in the experiment on OVCAR-3 ovarian and in the experiment with IGROV1 ovarian was above 100000 nM throughout.

Consider `C#C[C@@]1(O)[C@@H](CO)O[C@@H](n2cc(Cl)c3c(N)ncnc32)[C@@H]1O`, for which the GI50 in the experiment on OVCAR-8 ovarian is 33.6 nM; in the experiment on EKVX NSCLC it was 261 nM; with K-562 leukemia it was 99.3 nM; in the experiment with SF-268 CNS, 333 nM; in the experiment on HCC-2998 colon it was 186 nM; with NCI-H460 lung it was below 21.5 nM. For the same compound, the values for the GI50 in the experiment on OVCAR-3 ovarian, in the experiment on A498 renal and in the experiment with IGROV1 ovarian were 233 nM, 274 nM and 145 nM, respectively. The total growth inhibition concentration (TGI) is 1480 nM with OVCAR-8 ovarian; 2430 nM in the experiment with EKVX NSCLC; above 100000 nM with K-562 leukemia; 21200 nM in the experiment on SF-268 CNS; 532 nM with HCC-2998 colon; 412 nM in the experiment with NCI-H460 lung. The TGI in the experiment on OVCAR-3 ovarian came to 1790 nM; with A498 renal, 659 nM; with IGROV1 ovarian, 475 nM.

Regarding `O=C(O)C(=O)Cc1ccc2c(c1)OCO2`, the TGI in the experiment with OVCAR-8 ovarian, with EKVX NSCLC, with K-562 leukemia, in the experiment with UACC-62 melanoma, in the experiment with NCI-H460 lung and with OVCAR-3 ovarian was above 100000 nM throughout. For the same compound, the TGI with A498 renal and with IGROV1 ovarian was above 100000 nM each time.

Source of the values: PubChem BioAssay (NCI).
